# Results published in patent US7285548B2, “Urea substituted benzothiazoles” (Hoffmann-La Roche Inc., priority 2003, dated 2007).
# Tests used:
# [1] = target: T1, human adenosine A2A receptor (Homo sapiens, UniProt P29274); assay: [3H]-SCH-58261 binding assay, human adenosine A2A receptor (CHO cell membranes, SPA); conditions: recombinant human A2A receptor in CHO membranes; [3H]-SCH-58261 1 nM; Ki by Cheng-Prussoff equation; read-out: hA2 (pKi) (converted)
# T1 construct: expressed in transfected cells; host or cells: CHO cells, semliki forest virus expression system; membrane preparation
# T1 sequence (P29274 whole entry): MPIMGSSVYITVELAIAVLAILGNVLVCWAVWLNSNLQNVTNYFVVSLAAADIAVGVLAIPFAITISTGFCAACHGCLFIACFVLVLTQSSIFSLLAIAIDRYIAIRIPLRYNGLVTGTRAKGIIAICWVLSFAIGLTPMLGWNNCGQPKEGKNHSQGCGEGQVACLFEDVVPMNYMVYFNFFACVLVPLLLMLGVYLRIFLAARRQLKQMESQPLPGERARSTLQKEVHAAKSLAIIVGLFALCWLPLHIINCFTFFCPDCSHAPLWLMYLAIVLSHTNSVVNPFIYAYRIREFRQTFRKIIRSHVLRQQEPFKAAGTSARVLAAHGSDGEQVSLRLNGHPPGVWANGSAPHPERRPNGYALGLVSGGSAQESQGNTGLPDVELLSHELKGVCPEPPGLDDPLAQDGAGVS
# Protocol: Human Adenosine A2A Receptor
# The human adenosine A2A receptor was recombinantly expressed in Chinese hamster ovary (CHO) cells using the semliki forest virus expression system. Cells were harvested, washed twice by centrifugation, homogenized and again washed by centrifugation. The final washed membrane pellet was suspended in a Tris (50 mM) buffer containing 120 mM NaCl, 5 mM KCl, 2 mM CaCl2 and 10 mM MgCl2 (pH 7.4) (buffer A). The [^3H]-SCH-58261 (Dionisotti et al., 1997, Br J Pharmacol 121, 353; 1nM) binding assay was carried out in 96-well plates in the presence of 2.5 μg of membrane protein, 0.5 mg of Ysi-poly-l-lysine SPA beads and 0.1 U adenosine deaminase in a final volume of 200 μl of buffer A. Non-specific binding was defined using xanthine amine congener (XAC; 2 μM). Compounds were tested at 10 concentrations from 10 μM-0.3 nM. All assays were conducted in duplicate and repeated at least two times. Assay plates were incubated for 1 hour at room temperature before centrifugation and then bound ligand determined using a Packard Topcount scintillation counter. IC50 values were calculated using a non-linear curve fitting program and Ki values calculated using the Cheng-Prussoff equation.
SMILES,Ki [1] [nM],melting point
"COc1ccc(N2CCOCC2)c2sc(NC(=O)N(C)C3CCC(C(F)(F)F)CC3)nc12 (stereo not drawn) [Example 1, 3-(4-Methoxy-7-morpholin-4-yl-benzothiazol-2-yl)-1-methyl-1-(4-trifluoromethyl-cyclohexyl)-urea]",20,157 to 167 °C
"COc1ccc(N2CCOCC2)c2sc(NC(=O)N(C)C3CC4CC3CC4O)nc12 (racemic) [Example 10, (rac)-1-(5-exo-Hydroxy-bicyclo[2.2.1]hept-2-exo-yl)-3-(4-methoxy-7-morpholin-4-yl-benzothiazol-2-yl)-1-methyl-urea]",7.94,189 °C
"COc1ccc(N2CCOCC2)c2sc(NC(=O)N(C)[C@H]3CC[C@H](CO)CC3)nc12 [Example 3, (trans)-1-(4-Hydroxymethyl-cyclohexyl)-3-(4-methoxy-7-morpholin-4-yl-benzothiazol-2-yl)-1-methyl-urea]",15.8,190 °C (dec.)
"COC[C@H]1CC[C@H](N(C)C(=O)Nc2nc3c(OC)ccc(N4CCOCC4)c3s2)CC1 [Example 4, (trans)-1-(4-Methoxymethyl-cyclohexyl)-3-(4-methoxy-7-morpholin-4-yl-benzothiazol-2-yl)-1-methyl-urea]",20,141 to 143 °C
"COc1ccc(N2CCOCC2)c2sc(NC(=O)N(C)C3CCC(CO)C3)nc12 (racemic) [Example 5, (rac),(cis)-1-(3-Hydroxymethyl-cyclopentyl)-3-(4-methoxy-7-morpholin-4-yl-benzothiazol-2-yl)-1-methyl-urea]",3.98,115 to 118 °C
"COc1ccc(N2CCOCC2)c2sc(NC(=O)N(C)C3CC4CCC3O4)nc12 (single isomer, unassigned) [Example 8, (exo)-(−)-3-(4-Methoxy-7-morpholin-4-yl-benzothiazol-2-yl)-1-methyl-1-(7-oxa-bicyclo[2.2.1]hept-2-yl)-urea]",10,202 to 203 °C
"COc1ccc(N2CCOCC2)c2sc(NC(=O)N3CC4CCC(C3)O4)nc12 [Example 13, 8-Oxa-3-aza-bicyclo[3.2.1]octane-3-carboxylic acid (4-methoxy-7-morpholin-4-yl-benzothiazol-2-yl)-amide]",10,229 to 231 °C
"COc1ccc(N2CCOCC2)c2sc(NC(=O)N(C)C3CC4CCC3C4)nc12 (racemic) [Example 6, 1-(endo)-(rac)-Bicyclo[2.2.1]hept-2-yl-3-(4-methoxy-7-morpholin-4-yl-benzothiazol-2-yl)-1-methyl-urea]",7.94,199 to 202 °C
"COc1ccc(N2CCOCC2)c2sc(NC(=O)N(C)C3CC4CCC3O4)nc12 (single isomer, unassigned) [Example 7, (exo)-(+)-3-(4-Methoxy-7-morpholin-4-yl-benzothiazol-2-yl)-1-methyl-1-(7-oxa-bicyclo[2.2.1]hept-2-yl)-urea]",3.16,202 to 204 °C
"COc1ccc(N2CCOCC2)c2sc(NC(=O)N(C)[C@H]3CC[C@H](C)CC3)nc12 [Example 2, (trans)-3-(4-Methoxy-7-morpholin-4-yl-benzothiazol-2-yl)-1-methyl-1-(4-methyl-cyclohexyl)-urea]",15.8,171 to 173 °C
"COc1ccc(N2CCOCC2)c2sc(NC(=O)N(C)C34CC5CC(CC(C5)C3)C4)nc12 [Example 12, 1-Adamantan-1-yl-3-(4-methoxy-7-morpholin-4-yl-benzothiazol-2-yl)-1-methyl-urea]",50.1,165 to 176 °C
"COc1ccc(N2CCOCC2)c2sc(NC(=O)N(C)C3CC4CCC3O4)nc12 (racemic) [Example 9, (rac)-(endo)-3-(4-Methoxy-7-morpholin-4-yl-benzothiazol-2-yl)-1-methyl-1-(7-oxa-bicyclo[2.2.1]hept-2-yl)-urea]",12.6,191 to 193 °C
